Test results reported in patent US12662494B2, “Optically active bridged piperidine derivative” (Sumitomo Pharma Co., Ltd., priority 2018, dated 2026).

What was measured:
HOXA9 = assay: Test 3: inhibition of mRNA transcription, HOXA9 in MV4;11 cells; assay type: cell-based; conditions: 20 to 24 hours, fitted with GAPDH
Method: (§1) Test 3: Test for the Inhibition of mRNA Transcription with Test Compounds
(§2) MV4; 11 cells were obtained from American Type Culture Collection (ATCC). The cells were cultured at 37° C. in the presence of 5% CO2 in RPMI 1640 medium containing 10% fetal bovine serum and 1% penicillin/streptomycin. To the MV4; 11 cells was added each test compound to adjust the final concentration to 1 μmol/L, and the cells were cultured at 37° C. in the presence of 5% CO2 for 20 to 24 hours. After the incubation, the total RNA was extracted from the cells with RNeasy™ Mini Kit (QIAGEN, 74106), and CDNA was synthesized with Superscript™ VILO™ CDNA Synthesis Kit (Invitrogen, #11754250). By using TaqMan™ Gene Expression Master Mix (Applied Biosystems, 4369016) and TaqMan™ probe (Applied Biosystems), the expression level of mRNA was quantified from the obtained cDNA with 7900HT (Applied Biosystems). The mRNA expression level of each obtained gene was fitted with the expression level of mRNA of GAPDH.

[1] = target: T1, Menin-MLL binding (His-Menin1-615 and MLL1-172-FLAG) (Homo sapiens, UniProt O00255); assay: Test 1: inhibition of the menin-MLL binding (HTRF); conditions: for IC50: His-Menin1-615 30 nmol/L, MLL1-172-FLAG 50 nmol/L
T1 construct: Menin1-615 wherein 6× His tag and HA tag are inserted in the N-terminus; HA (N); myc (C)
T1 sequence (O00255 1-615 isoform O00255-1): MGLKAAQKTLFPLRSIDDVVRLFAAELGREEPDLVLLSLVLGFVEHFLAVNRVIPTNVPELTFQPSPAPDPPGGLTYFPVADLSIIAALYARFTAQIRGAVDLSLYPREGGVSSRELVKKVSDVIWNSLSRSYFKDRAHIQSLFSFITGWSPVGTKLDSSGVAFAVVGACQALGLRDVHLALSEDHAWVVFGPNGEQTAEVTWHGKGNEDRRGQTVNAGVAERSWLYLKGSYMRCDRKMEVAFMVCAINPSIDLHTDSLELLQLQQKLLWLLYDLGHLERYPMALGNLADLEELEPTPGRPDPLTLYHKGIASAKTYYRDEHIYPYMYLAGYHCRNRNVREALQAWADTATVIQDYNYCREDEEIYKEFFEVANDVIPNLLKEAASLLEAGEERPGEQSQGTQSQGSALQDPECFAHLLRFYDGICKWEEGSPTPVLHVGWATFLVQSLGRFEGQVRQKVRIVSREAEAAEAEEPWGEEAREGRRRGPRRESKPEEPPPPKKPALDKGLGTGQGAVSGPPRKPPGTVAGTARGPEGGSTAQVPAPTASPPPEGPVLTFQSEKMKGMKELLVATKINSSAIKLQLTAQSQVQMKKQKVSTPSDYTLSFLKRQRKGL
Method: Test 1: Test for Evaluating the Inhibition of the Menin-MLL Binding
Menin1-615 wherein 6× His tag and HA tag are inserted in the N-terminus, and myc tag is inserted in the C-terminus (hereinafter, referred to as His-Menin1-615), was diluted with an assay buffer (25 mmol/L HEPES, 150 mmol/L NaCl, 1 mmol/L dithiothreitol, 0.5% (w/v) Tween 80, 0.3% (w/v) BSA, 0.3% (w/v) skim milk) to adjust the final concentration to 30 nmol/L. The test compounds were also diluted with the assay buffer to adjust each concentration of the test compounds to 0.005 to 5 μmol/L. The prepared His-Menin1-615 and test compounds were added to a light-shielding 384-well low-volume plate (Corning, #4514) in 2 μL/well and […], respectively, and the plate was covered with a lid for light-shielding (Corning, #3935), and incubated at room temperature for 3 hours. After the incubation, MLL1-172 wherein FLAG tag is inserted in the C-terminus (MLL1-172-FLAG), was separately diluted with the assay buffer to adjust the final concentration to 50 nmol/L. The prepared MLL1-172-FLAG was added to the above plate in 2 μL/well, and the plate was covered with a lid for light-shielding and incubated at room temperature for an hour.
Then, anti-6HIS-d2 antibody (cisbio, 61HISDLA) and anti-FLAGM2-K antibody (cisbio, 61FG2KLA) were diluted with an antibody dilution buffer (50 mmol/L Tris, 150 mmol/L NaCl, 800 mmol/L KF, pH 7.4) to adjust the final concentration to 1.4 μg/mL to prepare an antibody mixture. The prepared antibody mixture was added to the above plate in 10 μL/well, and the plate was covered with a lid and incubated at 4° C. for 17 to 24 hours. After the incubation, the signal was detected with RUBYstar (BMG LABTECH).

RS4; 11 cells = assay: Test 2: inhibition of cell proliferation, RS4;11; assay type: cell-based; conditions: for IC50: Homo sapiens, 168 h, RS4;11 cells, 7 days, PrestoBlue cell viability; for cell proliferation inhibition activity, good (in words): summary of Test 2 table, RS4;11 and MOLM-13
Method: (§3) Test 2: Test for Evaluating the Inhibition of Cell Proliferation
(§4) RS4; 11 cells were obtained from American Type Culture Collection (ATCC). The cells were cultured at 37° C. in the presence of 5% CO2 in RPMI 1640 medium containing 10% fetal bovine serum and 1% penicillin/streptomycin. MOLM-13 cells were separately obtained from DSMZ (Deutsche Sammlung von Mikroorganismen und Zellkulturen GmbH). The cells were cultured at 37° C. in the presence of 5% CO2 in RPMI 1640 medium containing […] and 1% penicillin/streptomycin.
(§5) The cells were plated to a 96-well plate in 2000 cells/well, each test compound was added thereto to adjust the final concentration of DMSO to 0.1% of DMSO, and the cells were cultured for 7 days. After the cultivation, the cell viability was calculated with PrestoBlue™ Cell Viability Reagent (Invitrogen, A13261). The IC50 value was calculated from a survival curve, that corresponds to the concentration of the test compound at which the cell proliferation inhibition rate is 50%.

MEIS1 = assay: Test 3: inhibition of mRNA transcription, MEIS1 in MV4;11 cells; assay type: cell-based; conditions: for mRNA at 1 μM (% control) MEIS1: MV4;11 cells, 20 to 24 hours, fitted with GAPDH; for mRNA transcription inhibition activity (in words): summary of Test 3 table, MEIS1 and HOXA9, MV4;11 cells, 1 μM
Method: as §1, §2

MOLM-13 cells = assay: Test 2: inhibition of cell proliferation, MOLM-13; assay type: cell-based; conditions: Homo sapiens, 168 h, 7 days, PrestoBlue cell viability
Method: as §3, §4, §5

[2] = Test 4: pharmacokinetic study, oral, mouse
Method: Test 4: Pharmacokinetic Study
The test compound suspended in 0.5% methylcellulose was orally administered to 7-week-old male NOD. CB17-Prkdcscid/J mouse in a dose of 100 mg/kg. The blood sample was taken from jugular vein without anesthesia over time for 24 hours. The blood sample was centrifuged to obtain plasma. The plasma was pre-treated by methanol extraction method, and then analyzed with an LC-MS/MS to determine the concentration of the test compound. Based on the data from 0 hour after the administration until the time (t) when there was the final detection in the plasma, AUC was calculated by trapezoidal method.

N#Cc1cnc2sc(CC(F)(F)F)cc2c1N1CC2(CN(C(=O)[C@H]3N[C@H]4CC[C@@H]3[C@@H](F)[C@H]4CC3CC3)C2)C1 [Example 14, 4-{6-[(1S,3S,4S,5S,6S)-6-(cyclopropylmethyl)-5-fluoro-2-azabicyclo[2.2.2]octane-3-carbonyl]-2,6-diazaspiro[3.3]heptan-2-yl}-2-(2,2,2-trifluoroethyl)thieno[2,3-b]pyridine-5-carbonitrile]
mRNA at 1 μM (% control) HOXA9 (HOXA9): 51.4 % control
IC50 [1]: 21.7 nM
menin-MLL binding inhibition activity (in words) ([1]; summary of Test 1 table): potent menin-MLL binding inhibition activity
IC50 (RS4; 11 cells): 260 nM
cell proliferation inhibition activity, good (in words) (RS4; 11 cells): good cell proliferation inhibition activity
mRNA at 1 μM (% control) MEIS1 (MEIS1): 38.5 % control
mRNA transcription inhibition activity (in words) (MEIS1): mRNA transcription inhibition activity
IC50 (MOLM-13 cells): 550 nM

C=C1C[C@@H]2CC[C@H]1[C@@H](C(=O)N1CC3(C1)CN(c1c(C#N)cnc4sc(CC(F)(F)F)cc14)C3)N2 [Example 6, 4-{6-[(1S,3S,4R)-5-methylidene-2-azabicyclo[2.2.2]octane-3-carbonyl]-2,6-diazaspiro[3.3]heptan-2-yl}-2-(2,2,2-trifluoroethyl)thieno[2,3-b]pyridine-5-carbonitrile]
mRNA at 1 μM (% control) HOXA9 (HOXA9): 45.9 % control
IC50 [1]: 9 nM
IC50 (RS4; 11 cells): 90 nM
mRNA at 1 μM (% control) MEIS1 (MEIS1): 27.4 % control
IC50 (MOLM-13 cells): 200 nM

N#Cc1cnc2sc(CC(F)(F)F)cc2c1N1CC2(CN(C(=O)[C@H]3N[C@H]4CC[C@@H]3C[C@H]4CC3CC3)C2)C1 [Example 4, 4-{6-[(1S,3S,4R,6R)-6-(cyclopropylmethyl)-2-azabicyclo[2.2.2]octane-3-carbonyl]-2,6-diazaspiro[3.3]heptan-2-yl}-2-(2,2,2-trifluoroethyl)thieno[2,3-b]pyridine-5-carbonitrile]
mRNA at 1 μM (% control) HOXA9 (HOXA9): 52.5 % control
IC50 [1]: 48 nM
IC50 (RS4; 11 cells): 290 nM
mRNA at 1 μM (% control) MEIS1 (MEIS1): 47.1 % control
IC50 (MOLM-13 cells): 710 nM

N#Cc1cnc2sc(CC(F)(F)F)cc2c1N1CC2(CN(C(=O)[C@H]3N[C@H]4CC[C@@H]3[C@H](F)[C@@H]4CC3CC3)C2)C1 [Example 12, 4-{6-[(1S,3S,4S,5R,6R)-6-(cyclopropylmethyl)-5-fluoro-2-azabicyclo[2.2.2]octane-3-carbonyl]-2,6-diazaspiro[3.3]heptan-2-yl}-2-(2,2,2-trifluoroethyl)thieno[2,3-b]pyridine-5-carbonitrile]
mRNA at 1 μM (% control) HOXA9 (HOXA9): 42.6 % control
IC50 [1]: 7.3 nM
IC50 (RS4; 11 cells): 60 nM
mRNA at 1 μM (% control) MEIS1 (MEIS1): 18.4 % control
AUC(0-t) ([2]; male, NOD.CB17-Prkdcscid/J, plasma, po, 100 mg/kg): 8970 ng·h/mL
compound-exposure in plasma (in words) ([2]; summary of Test 4 table, oral 100 mg/kg): good compound-exposure in plasma
IC50 (MOLM-13 cells): 90 nM

O=C([C@H]1N[C@H]2CC[C@@H]1C[C@H]2CC1CC1)N1CC2(C1)CN(c1c(C(F)(F)F)cnc3sc(CC(F)(F)F)cc13)C2 [Example 3, [(1S,3S,4R,6R)-6-(cyclopropylmethyl)-2-azabicyclo[2.2.2]octan-3-yl]{6-[2-(2,2,2-trifluoroethyl)-5-(trifluoromethyl)thieno[2,3-b]pyridin-4-yl]-2,6-diazaspiro[3.3]heptan-2-yl}methanone]
mRNA at 1 μM (% control) HOXA9 (HOXA9): 54.0 % control
IC50 [1]: 88.6 nM
IC50 (RS4; 11 cells): 590 nM
mRNA at 1 μM (% control) MEIS1 (MEIS1): 52.6 % control
IC50 (MOLM-13 cells): 800 nM

N#Cc1cnc2sc(CC(F)(F)F)cc2c1N1CC2(CN(C(=O)[C@H]3N[C@H]4CC[C@@H]3C[C@@H]4CC3CC3)C2)C1 [Example 2, 4-{6-[(1S,3S,4R,6S)-6-(cyclopropylmethyl)-2-azabicyclo[2.2.2]octane-3-carbonyl]-2,6-diazaspiro[3.3]heptan-2-yl}-2-(2,2,2-trifluoroethyl)thieno[2,3-b]pyridine-5-carbonitrile]
mRNA at 1 μM (% control) HOXA9 (HOXA9): 48.2 % control
IC50 [1]: 7 nM
IC50 (RS4; 11 cells): 190 nM
mRNA at 1 μM (% control) MEIS1 (MEIS1): 26.6 % control
IC50 (MOLM-13 cells): 260 nM

O=C([C@H]1N[C@H]2CC[C@@H]1[C@@H](F)[C@H]2CC1CC1)N1CC2(C1)CN(c1c(C(F)(F)F)cnc3sc(CC(F)(F)F)cc13)C2 [Example 13, [(1S,3S,4S,5S,6S)-6-(cyclopropylmethyl)-5-fluoro-2-azabicyclo[2.2.2]octan-3-yl]{6-[2-(2,2,2-trifluoroethyl)-5-(trifluoromethyl)thieno[2,3-b]pyridin-4-yl]-2,6-diazaspiro[3.3]heptan-2-yl}methanone]
mRNA at 1 μM (% control) HOXA9 (HOXA9): 45.4 % control
IC50 [1]: 54.2 nM
IC50 (RS4; 11 cells): 440 nM
cell proliferation inhibition activity, good (in words) (RS4; 11 cells): good cell proliferation inhibition activity
mRNA at 1 μM (% control) MEIS1 (MEIS1): 39.6 % control
mRNA transcription inhibition activity (in words) (MEIS1): mRNA transcription inhibition activity
IC50 (MOLM-13 cells): 690 nM

C=C1C[C@@H]2CC[C@H]1[C@@H](C(=O)N1CC3(C1)CN(c1c(C(F)(F)F)cnc4sc(CC(F)(F)F)cc14)C3)N2 [Example 5, [(1S,3S,4R)-5-methylidene-2-azabicyclo[2.2.2]octan-3-yl]{6-[2-(2,2,2-trifluoroethyl)-5-(trifluoromethyl)thieno[2,3-b]pyridin-4-yl]-2,6-diazaspiro[3.3]heptan-2-yl}methanone]
mRNA at 1 μM (% control) HOXA9 (HOXA9): 44.3 % control
IC50 [1]: 92.7 nM
IC50 (RS4; 11 cells): 200 nM
mRNA at 1 μM (% control) MEIS1 (MEIS1): 32.3 % control
IC50 (MOLM-13 cells): 280 nM
